Holding throughout (set-up): key: R = resistant; S = susceptible; BLAC = Beta-lactamase positive
Assay [1] has as its system S. aureus (S). In words: Susceptibility test of Gram positive Bacteria. Format: cell-based.
The subject of assay [2] is S. epidermidis (R). Nature of the assay: Susceptibility test of Gram positive Bacteria. Type of assay: cell-based.
Assay [3] concerns S. epidermidis (S). Nature of the assay: Susceptibility test of Gram positive Bacteria. Format: cell-based.
For assay [4], the system named is MRSA. Nature of the assay: Susceptibility test of Gram positive Bacteria. Format: cell-based, Methicillin-resistant S. aureus.
The test system of assay [5] is A. baumannii (R). Nature of the assay: Susceptibility test of Gram negative Bacteria. Type of assay: cell-based.
For assay [6], the system named is A. baumannii (S). In words: Susceptibility test of Gram negative Bacteria. Type of assay: cell-based.
In assay [7] the test system is E. coli (R). In words: Susceptibility test of Gram negative Bacteria. Type of assay: cell-based.
The subject of assay [8] is E. coli (S). In words: Susceptibility test of Gram negative Bacteria. Format: cell-based.

`O=C(O)c1cn(C2CC2)c2cc(N3CCNCC3)c(F)cc2c1=O` [Ciprofloxacin]: the Susceptibility test result in assay [1] was “S”; in assay [2] it was “R”; in assay [3], “S”; in assay [4] it was “S”.

In the case of `CO/N=C(\C(=O)N[C@@H]1C(=O)N2C(C(=O)O)=C(COC(C)=O)CS[C@H]12)c1csc(N)n1` [Cefotaxime], the Susceptibility test result is on record as “R” in assay [5], “S” in assay [6] and “R” in assay [2].

On to Amoxicillin-Clavulanate, for which the Susceptibility test result in assay [5] is “R”; in assay [1] it was “S”; in assay [2], “R”; in assay [3], “S”; in assay [4], “R”.

Turning to `CC(=O)OCC1=C(C(=O)O)N2C(=O)[C@@H](NC(=O)Cc3cccs3)[C@H]2SC1` [Cefalotin], the Susceptibility test result in assay [7] is recorded as “R”; in assay [8] it was “S”.

Trimethoprim-Sulfamethoxazole: the Susceptibility test result in assay [1] is on record as “S”; in assay [2] it was “R”; in assay [3], “S”; in assay [4], “S”.

`CC1(C)S[C@@H]2[C@H](NC(=O)Cc3ccccc3)C(=O)N2[C@H]1C(=O)O` [Penicillin G]: the Susceptibility test entry in assay [1] was “BLAC”; in assay [2], “R”; in assay [3], “S”; in assay [4], “BLAC”.

Regarding Gentamycin, the Susceptibility test result in assay [1] is “S”; in assay [2], “R”; in assay [3], “S”; in assay [4], “S”.

As for `CC1(C)S[C@@H]2[C@H](NC(=O)[C@H](N)c3ccc(O)cc3)C(=O)N2[C@H]1C(=O)O` [Amoxicillin], the Susceptibility test result in assay [5] is reported as “R”; in assay [7], “R”; in assay [6], “S”; in assay [8], “S”.

As for `CO/N=C(\C(=O)N[C@@H]1C(=O)N2C(C(=O)O)=C(COC(N)=O)CS[C@H]12)c1ccco1` [Cefuroxime], the Susceptibility test entry in assay [5] is on record as “R”; in assay [7], “R”; in assay [6], “S”.

`C=CC1=C(C(=O)O)N2C(=O)[C@@H](NC(=O)/C(=N\OCC(=O)O)c3csc(N)n3)[C@H]2SC1` [Cefixime]: the Susceptibility test entry in assay [5] is on record as “R”; in assay [7] it was “R”; in assay [8], “S”.

Regarding `CCC[C@@H]1C[C@@H](C(=O)N[C@@H]([C@H]2O[C@H](SC)[C@H](O)[C@@H](O)[C@H]2O)[C@H](C)Cl)N(C)C1` [Clindamycin], the Susceptibility test entry is “S” in assay [1], “R” in assay [2] and “S” in assay [3].

Take `O=C1CN(/N=C/c2ccc([N+](=O)[O-])o2)C(=O)N1` [Nitrofurantoin]: the Susceptibility test result in assay [5] was “R”.

With `C/C(=C\C(=O)OCCCCCCCCC(=O)O)C[C@@H]1OC[C@H](C[C@@H]2O[C@H]2[C@@H](C)[C@H](C)O)[C@@H](O)[C@H]1O` [Mupirocin], the Susceptibility test result in assay [1] was “S”; in assay [2], “R”; in assay [3] it was “S”; in assay [4], “S”.

For the molecule `Cc1onc(-c2ccccc2)c1C(=O)N[C@@H]1C(=O)N2[C@@H]1SC(C)(C)[C@@H]2C(=O)O` [Oxacillin], the Susceptibility test result in assay [1] is “S”; in assay [2] it was “R”; in assay [3], “S”; in assay [4], “R”.

Take `CC[C@H]1OC(=O)[C@H](C)[C@@H](O[C@H]2C[C@@](C)(OC)[C@@H](O)[C@H](C)O2)[C@H](C)[C@@H](O[C@@H]2O[C@H](C)C[C@H](N(C)C)[C@H]2O)[C@](C)(O)C[C@@H](C)C(=O)[C@H](C)[C@@H](O)[C@]1(C)O` [Erythromycin]: the Susceptibility test entry in assay [1] was “R”; in assay [2], “R”; in assay [3], “S”.

Take `CC1(C)S[C@@H]2[C@H](NC(=O)[C@H](N)c3ccccc3)C(=O)N2[C@H]1C(=O)O` [Ampicillin]: the Susceptibility test entry in assay [5] is given as “R”; in assay [1] it was “BLAC”; in assay [7], “R”; in assay [2], “R”; in assay [3], “S”; in assay [4] it was “BLAC”. Moreover, the Susceptibility test result in assay [8] is “S”.

Consider `C[C@@H](O)[C@H]1C(=O)N2C(C(=O)O)=C(SCCN=CN)C[C@H]12` [Imipenem], for which the Susceptibility test result in assay [1] is reported as “S”; in assay [2] it was “R”; in assay [3] it was “S”; in assay [4], “R”.

On to `C[C@H]1[C@H](NC(=O)/C(=N\OC(C)(C)C(=O)O)c2csc(N)n2)C(=O)N1S(=O)(=O)O` [Aztreonam], for which the Susceptibility test entry in assay [5] was “R”; in assay [7], “R”; in assay [8], “S”.

In the case of `CO/N=C(\C(=O)N[C@@H]1C(=O)N2C(C(=O)O)=C(CSc3nc(=O)c(O)nn3C)CS[C@H]12)c1csc(N)n1` [Ciftriaxone], in assay [5], the Susceptibility test result was “R”.

Take `CO[C@@]1(NC(=O)Cc2cccs2)C(=O)N2C(C(=O)O)=C(COC(N)=O)CS[C@@H]21` [Cefoxitin]: the Susceptibility test result in assay [5] was “R”; in assay [1] it was “Negative”; in assay [2] it was “R”; in assay [3], “S”; in assay [4], “Positive”.

Source of the values: patent publication US11806790B2, “Biosynthesis of metal nanoparticles” (KING SAUD UNIVERSITY, priority 2019, dated 2023).
